Experimental data: publication PMC12361428 (Nature Communications, 2025)
Where “and” joins values, the source holds several entries; their conditions need not be identical. Equal values may be shown once.

Experiments:
[1] = biological target: A1AR; conditions: source not given; cited from earlier work
[2] = test system: Nluc-tagged hA3AR-BRIL-S97R; assay: NanoBRET washout (irreversible binding) assay vs XAC-630
[3] = test system: A3AR H95^3.37 alanine mutation; conditions: cited from earlier work

| Compound | pKi [1] | NanoBRET washout assay, normalised signal (Figure S2G), individual replicates ([2]; 4 x Wash) | NanoBRET washout assay, normalised signal (Figure S2G), individual replicates ([2]; Control (no wash)) | decrease in binding [3] [fold] |
| --- | --- | --- | --- | --- |
| CCCn1c(=O)c2[nH]c(C3CCCCC3)nc2n(CCCNC(=O)c2ccc(S(=O)(=O)F)cc2)c1=O [DU172] | 7.4 | – | – | – |
| O=C(Cc1ccccc1)Nc1nc2ccc(Cl)cc2c2nc(-c3ccco3)nn12 [MRS1220, 9-Chloro-2-(2-furanyl)-5-((phenylacetyl)amino)-[1,2,4]triazolo[1,5-c]quinazoline] | – | 60.7809 and 60.2862 and 64.3691 | 11.5596 and 12.4414 and 6.2814 and 13.7989 | – |
| CNC(=O)[C@H]1O[C@@H](n2cnc3c(NCc4cccc(I)c4)nc(Cl)nc32)[C@H](O)[C@@H]1O [Namodenoson] | – | – | – | 30 |
| CC[C@@H]1CN2C(=O)N(C)c3nc(-c4ccccc4)[nH]c3C2=N1 [PSB11] | – | 116.307 and 107.384 and 90.4226 and 99.5492 | 1.581 and 3.183e-15 and -2.281 and -2.887e-15 | – |
